# Source: patent publication US8946273B2, “S-Triazolyl alpha-mercapto acetanilides as inhibitors of HIV reverse transcriptase” (priority 2011, dated 2015)
# Test system: wild type HIV-1
# Experiment: microbe, parasite or virus in culture
# Format: cell-based, human immunodeficiency virus type 1 (HIV-1)
# Settings: Human immunodeficiency virus 1, Hela-JC53, read-out: EC50 WT
row,SMILES,EC50 [nM]
1,CN(CC(=O)O)C(=O)c1ccc(NC(=O)CSc2nnc(Br)n2-c2ccc(C3CC3)c3ccccc23)c(Cl)c1 [compound 111],50 to 100
2,O=C(O)CCNC(=O)c1ccc(NC(=O)CSc2nnc(Br)n2-c2ccc(C3CC3)c3ccccc23)c(Cl)c1 [compound 112],< 50
3,COc1ccc2c(C3CC3)ccc(-n3c(Br)nnc3SCC(=O)Nc3ccc(S(=O)(=O)O)cc3Cl)c2c1 [compound 113],50 to 100
4,CCOC(=O)[C@H](Cc1ccc(O)cc1)NC(=O)c1ccc(NC(=O)CSc2nnc(Br)n2-c2ccc(C3CC3)c3ccccc23)c(Cl)c1 [compound 114],< 50
5,COC(=O)[C@H](CC(C)C)NC(=O)c1ccc(NC(=O)CSc2nnc(Br)n2-c2ccc(C3CC3)c3ccccc23)c(Cl)c1 [compound 115],< 50
6,O=C(CSc1nnc(Br)n1-c1ccc(C2CC2)c2ccccc12)Nc1ccc(C(=O)N[C@@H](Cc2ccc(O)cc2)C(=O)O)cc1Cl [compound 116],50 to 100
7,CC(C)C[C@H](NC(=O)c1ccc(NC(=O)CSc2nnc(Br)n2-c2ccc(C3CC3)c3ccccc23)c(Cl)c1)C(=O)O [compound 117],< 50
8,CCc1ccc(-n2c(Br)nnc2SCC(=O)Nc2ccc(C(=O)NCC(OC)OC)cc2Cl)c2ccccc12 [compound 118],< 50
9,CCc1ccc(-n2c(Br)nnc2SCC(=O)Nc2ccc(C(=O)NCCN(C)C)cc2Cl)c2ccccc12 [compound 119],< 50
10,CCc1ccc(-n2c(Br)nnc2SCC(=O)Nc2ccc(C(=O)NCC(O)CO)cc2Cl)c2ccccc12 (stereo not shown) [compound 120],< 50
11,CCCCNC(=O)c1ccc(NC(=O)CSc2nnc(Br)n2-c2ccc(CC)c3ccccc23)c(Cl)c1 [compound 121],< 50
12,CCCCCCNC(=O)c1ccc(NC(=O)CSc2nnc(Br)n2-c2ccc(CC)c3ccccc23)c(Cl)c1 [compound 122],< 50
13,CCc1ccc(-n2c(Br)nnc2SCC(=O)Nc2ccc(C(=O)NCCN3CCCC3)cc2Cl)c2ccccc12 [compound 123],< 50

# Same assay, conditions: read-out: EC50 WT; wild-type (WT) HIV-1
row,SMILES,EC50 [nM]
1,Cc1cc(C)c2ccccc2c1-n1c(SCC(=O)Nc2ccc(S(N)(=O)=O)cc2Cl)nnc1C(F)(F)F [compound 84],< 50
2,NS(=O)(=O)c1ccc(NC(=O)CSc2nnc(C(F)F)n2-c2ccc(C3CCCC3)c3ccccc23)c(Cl)c1 [compound 99],< 50
3,NS(=O)(=O)c1ccc(NC(=O)CSc2nnc(C(F)F)n2-c2ccc(C3CCC3)c3ccccc23)c(Cl)c1 [compound 100],< 50

# Target: T1, wild-type HIV reverse transcriptase (Human immunodeficiency virus type 1 group M subtype B, UniProt P04585)
# T1 construct: wild-type and four mutant HIV reverse transcriptases
# Experiment: Activity on wild type reverse transcriptase (Table 1 IC50 WT)
# Format: biochemical
# Settings: not given
# Experimental: Using similar methods as described above, 2-[5-bromo-4-(4-cyclopropylnaphthalen-1-yl)-4H-[1,2,4]triazol-3-ylsulfanyl]-N-(2-methyl-4-sulfamoylphenyeacetamide and 2-[5-bromo-4-(4-ethylnaphthalen-1-yl)-4H-[1,2,4]triazol-3-ylsulfanyl]-N-(2-chloro-4-sulfamoylphenyl)-acetamide were synthesized, as were the N-4-carbamyl analog, 2-[5-bromo-4-(4-ethyl-naphthalen-1-yl)-4H-[1,2,4]triazol-3-ylsulfanyl]-N-(2-chloro-4-carbamoylphenyl)-acetamide and the N-4-carboxyl analog. Each of the compounds was tested against a panel of mutant HIV reverse transcriptases, including 20 of the 22 of the mutants that are found in about 2% or more of the patient samples that are resistant to the most widely used non-nucleoside HIV-RT inhibitor efavirenz ((4S)-6-chloro-4-(cyclopropylethynyl)-1,4-dihydro-4-(trifluoromethyl)-2H-3,1-benzoxazin-2-one). […] In most cases both criteria were met. […] […].
# Compounds of the invention were tested against the wild-type and four mutant HIV reverse transcriptases. The results are listed in Table 1 as EC50 (nM) and IC50 (nM). In the Table, A represents <50 nM, B is between 50 and 100 nM, and C is >100 nM. ND is not determined.
row,SMILES,IC50 [nM]
1,CN(CC(=O)O)C(=O)c1ccc(NC(=O)CSc2nnc(Br)n2-c2ccc(C3CC3)c3ccccc23)c(Cl)c1 [compound 111],< 50
2,O=C(O)CCNC(=O)c1ccc(NC(=O)CSc2nnc(Br)n2-c2ccc(C3CC3)c3ccccc23)c(Cl)c1 [compound 112],< 50
3,COc1ccc2c(C3CC3)ccc(-n3c(Br)nnc3SCC(=O)Nc3ccc(S(=O)(=O)O)cc3Cl)c2c1 [compound 113],< 50
4,CCOC(=O)[C@H](Cc1ccc(O)cc1)NC(=O)c1ccc(NC(=O)CSc2nnc(Br)n2-c2ccc(C3CC3)c3ccccc23)c(Cl)c1 [compound 114],50 to 100
5,COC(=O)[C@H](CC(C)C)NC(=O)c1ccc(NC(=O)CSc2nnc(Br)n2-c2ccc(C3CC3)c3ccccc23)c(Cl)c1 [compound 115],< 50
6,O=C(CSc1nnc(Br)n1-c1ccc(C2CC2)c2ccccc12)Nc1ccc(C(=O)N[C@@H](Cc2ccc(O)cc2)C(=O)O)cc1Cl [compound 116],< 50
7,CC(C)C[C@H](NC(=O)c1ccc(NC(=O)CSc2nnc(Br)n2-c2ccc(C3CC3)c3ccccc23)c(Cl)c1)C(=O)O [compound 117],< 50
8,CCc1ccc(-n2c(Br)nnc2SCC(=O)Nc2ccc(C(=O)NCC(OC)OC)cc2Cl)c2ccccc12 [compound 118],< 50
9,CCc1ccc(-n2c(Br)nnc2SCC(=O)Nc2ccc(C(=O)NCCN(C)C)cc2Cl)c2ccccc12 [compound 119],< 50
10,CCc1ccc(-n2c(Br)nnc2SCC(=O)Nc2ccc(C(=O)NCC(O)CO)cc2Cl)c2ccccc12 (stereo not shown) [compound 120],< 50
11,CCCCNC(=O)c1ccc(NC(=O)CSc2nnc(Br)n2-c2ccc(CC)c3ccccc23)c(Cl)c1 [compound 121],50 to 100
12,CCCCCCNC(=O)c1ccc(NC(=O)CSc2nnc(Br)n2-c2ccc(CC)c3ccccc23)c(Cl)c1 [compound 122],< 50
13,CCc1ccc(-n2c(Br)nnc2SCC(=O)Nc2ccc(C(=O)NCCN3CCCC3)cc2Cl)c2ccccc12 [compound 123],< 50

# Same assay, conditions: read-out: IC50 WT RT; wild-type (WT) RT
row,SMILES,IC50 [nM]
1,Cc1cc(C)c2ccccc2c1-n1c(SCC(=O)Nc2ccc(S(N)(=O)=O)cc2Cl)nnc1C(F)(F)F [compound 84],< 50
2,NS(=O)(=O)c1ccc(NC(=O)CSc2nnc(C(F)F)n2-c2ccc(C3CCCC3)c3ccccc23)c(Cl)c1 [compound 99],< 50
3,NS(=O)(=O)c1ccc(NC(=O)CSc2nnc(C(F)F)n2-c2ccc(C3CCC3)c3ccccc23)c(Cl)c1 [compound 100],< 50

# Target: mutant HIV reverse transcriptases (Human immunodeficiency virus type 1, UniProt P12497, Y768C, cells depend on it)
# Experiment: not given
# Format: cell-based
# Settings: not given
row,SMILES,EC50 [nM]
1,Cc1cc(C)c2ccccc2c1-n1c(SCC(=O)Nc2ccc(S(N)(=O)=O)cc2Cl)nnc1C(F)(F)F [compound 84],< 50
2,NS(=O)(=O)c1ccc(NC(=O)CSc2nnc(C(F)F)n2-c2ccc(C3CCCC3)c3ccccc23)c(Cl)c1 [compound 99],< 50
3,NS(=O)(=O)c1ccc(NC(=O)CSc2nnc(C(F)F)n2-c2ccc(C3CCC3)c3ccccc23)c(Cl)c1 [compound 100],< 50
4,CN(CC(=O)O)C(=O)c1ccc(NC(=O)CSc2nnc(Br)n2-c2ccc(C3CC3)c3ccccc23)c(Cl)c1 [compound 111],> 100
5,O=C(O)CCNC(=O)c1ccc(NC(=O)CSc2nnc(Br)n2-c2ccc(C3CC3)c3ccccc23)c(Cl)c1 [compound 112],> 100
6,COc1ccc2c(C3CC3)ccc(-n3c(Br)nnc3SCC(=O)Nc3ccc(S(=O)(=O)O)cc3Cl)c2c1 [compound 113],50 to 100
7,CCOC(=O)[C@H](Cc1ccc(O)cc1)NC(=O)c1ccc(NC(=O)CSc2nnc(Br)n2-c2ccc(C3CC3)c3ccccc23)c(Cl)c1 [compound 114],< 50
8,COC(=O)[C@H](CC(C)C)NC(=O)c1ccc(NC(=O)CSc2nnc(Br)n2-c2ccc(C3CC3)c3ccccc23)c(Cl)c1 [compound 115],< 50
9,O=C(CSc1nnc(Br)n1-c1ccc(C2CC2)c2ccccc12)Nc1ccc(C(=O)N[C@@H](Cc2ccc(O)cc2)C(=O)O)cc1Cl [compound 116],> 100
10,CC(C)C[C@H](NC(=O)c1ccc(NC(=O)CSc2nnc(Br)n2-c2ccc(C3CC3)c3ccccc23)c(Cl)c1)C(=O)O [compound 117],50 to 100
11,CCc1ccc(-n2c(Br)nnc2SCC(=O)Nc2ccc(C(=O)NCC(OC)OC)cc2Cl)c2ccccc12 [compound 118],< 50
12,CCc1ccc(-n2c(Br)nnc2SCC(=O)Nc2ccc(C(=O)NCCN(C)C)cc2Cl)c2ccccc12 [compound 119],< 50
13,CCc1ccc(-n2c(Br)nnc2SCC(=O)Nc2ccc(C(=O)NCC(O)CO)cc2Cl)c2ccccc12 (stereo not shown) [compound 120],< 50
14,CCCCNC(=O)c1ccc(NC(=O)CSc2nnc(Br)n2-c2ccc(CC)c3ccccc23)c(Cl)c1 [compound 121],< 50
15,CCCCCCNC(=O)c1ccc(NC(=O)CSc2nnc(Br)n2-c2ccc(CC)c3ccccc23)c(Cl)c1 [compound 122],< 50
16,CCc1ccc(-n2c(Br)nnc2SCC(=O)Nc2ccc(C(=O)NCCN3CCCC3)cc2Cl)c2ccccc12 [compound 123],< 50

# Target: mutant HIV reverse transcriptases (Human immunodeficiency virus type 1, UniProt P12497, Y775L, cells depend on it)
# Experiment: not given
# Format: cell-based
# Settings: not given
row,SMILES,EC50 [nM]
1,Cc1cc(C)c2ccccc2c1-n1c(SCC(=O)Nc2ccc(S(N)(=O)=O)cc2Cl)nnc1C(F)(F)F [compound 84],< 50
2,NS(=O)(=O)c1ccc(NC(=O)CSc2nnc(C(F)F)n2-c2ccc(C3CCCC3)c3ccccc23)c(Cl)c1 [compound 99],> 100
3,NS(=O)(=O)c1ccc(NC(=O)CSc2nnc(C(F)F)n2-c2ccc(C3CCC3)c3ccccc23)c(Cl)c1 [compound 100],< 50
4,CN(CC(=O)O)C(=O)c1ccc(NC(=O)CSc2nnc(Br)n2-c2ccc(C3CC3)c3ccccc23)c(Cl)c1 [compound 111],> 100
5,O=C(O)CCNC(=O)c1ccc(NC(=O)CSc2nnc(Br)n2-c2ccc(C3CC3)c3ccccc23)c(Cl)c1 [compound 112],> 100
6,COc1ccc2c(C3CC3)ccc(-n3c(Br)nnc3SCC(=O)Nc3ccc(S(=O)(=O)O)cc3Cl)c2c1 [compound 113],> 100
7,CCOC(=O)[C@H](Cc1ccc(O)cc1)NC(=O)c1ccc(NC(=O)CSc2nnc(Br)n2-c2ccc(C3CC3)c3ccccc23)c(Cl)c1 [compound 114],> 100
8,COC(=O)[C@H](CC(C)C)NC(=O)c1ccc(NC(=O)CSc2nnc(Br)n2-c2ccc(C3CC3)c3ccccc23)c(Cl)c1 [compound 115],50 to 100
9,O=C(CSc1nnc(Br)n1-c1ccc(C2CC2)c2ccccc12)Nc1ccc(C(=O)N[C@@H](Cc2ccc(O)cc2)C(=O)O)cc1Cl [compound 116],> 100
10,CC(C)C[C@H](NC(=O)c1ccc(NC(=O)CSc2nnc(Br)n2-c2ccc(C3CC3)c3ccccc23)c(Cl)c1)C(=O)O [compound 117],> 100
11,CCc1ccc(-n2c(Br)nnc2SCC(=O)Nc2ccc(C(=O)NCC(OC)OC)cc2Cl)c2ccccc12 [compound 118],< 50
12,CCc1ccc(-n2c(Br)nnc2SCC(=O)Nc2ccc(C(=O)NCCN(C)C)cc2Cl)c2ccccc12 [compound 119],< 50
13,CCc1ccc(-n2c(Br)nnc2SCC(=O)Nc2ccc(C(=O)NCC(O)CO)cc2Cl)c2ccccc12 (stereo not shown) [compound 120],< 50
14,CCCCNC(=O)c1ccc(NC(=O)CSc2nnc(Br)n2-c2ccc(CC)c3ccccc23)c(Cl)c1 [compound 121],< 50
15,CCCCCCNC(=O)c1ccc(NC(=O)CSc2nnc(Br)n2-c2ccc(CC)c3ccccc23)c(Cl)c1 [compound 122],50 to 100
16,CCc1ccc(-n2c(Br)nnc2SCC(=O)Nc2ccc(C(=O)NCCN3CCCC3)cc2Cl)c2ccccc12 [compound 123],< 50
